Data from US20250018014A1, “METHOD FOR TREATING AND/OR PREVENTING REGNASE-1-RELATED DISEASE” (OSAKA UNIVERSITY, priority 2018, published 2025).
Where two headings read alike, the source gives them in different places. Residues, ends and D or L forms follow the SMILES beside them.

Columns and labels:
Type in all cases: biochemical
[1] = biological target: T1, Reg1_301-599 (amino acids 301-599 of human Regnase-1) phosphorylation by TBK1 (Homo sapiens, UniProt Q5D1E8); experiment: Regnase-1 phosphorylation inhibition by compounds (AlphaScreen), TBK1, C-terminal Regnase-1; conditions: Table 13, read-out: Phosphorylation inhibition Reg1_301-599, 50% inhibition concentration (TBK1)
T1 construct: made in house; host or cells: Expi293 cells
T1 sequence (Q5D1E8 301-599): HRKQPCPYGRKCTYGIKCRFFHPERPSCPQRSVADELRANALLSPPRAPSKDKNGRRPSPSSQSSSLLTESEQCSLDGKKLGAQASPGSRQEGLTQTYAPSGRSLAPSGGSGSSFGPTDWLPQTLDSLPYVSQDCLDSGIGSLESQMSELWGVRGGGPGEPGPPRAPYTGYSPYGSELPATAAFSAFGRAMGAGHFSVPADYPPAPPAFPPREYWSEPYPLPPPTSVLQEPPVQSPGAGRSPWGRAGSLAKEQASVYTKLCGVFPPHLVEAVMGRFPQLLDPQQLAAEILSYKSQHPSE
Protocol: (§1) Among the full-length human Regnase-1 sequence, the 1st to 546th amino acid sequence was prepared and made into a construct having a FLAG tag on the N-terminal side and a biotin ligase BirA recognition sequence on the C-terminal side (herein, a Regnase-1 lacking the C-terminal domain of Regnase-1 (amino acids 547 to 599 in the case of SEQ ID NO: 2) is referred to as “ΔCTD_Reg1”. “ΔCTD_Reg1” is different from “Regnase-1ΔCTD”, which is a C-terminal domain deletion variant resulting from a frameshift mutation caused by a 1 bp deletion at codon 517, as prepared in Example 13). In addition, the sequence from amino acids 301 to 599 of the full-length human Regnase-1 sequence was designated as C-terminal Regnase-1, and a construct having a FLAG tag on the N-terminal side and a recognition sequence for biotin ligase BirA on the C-terminal side was prepared (Reg1_301-599). The above-mentioned Regnase-1 was expressed in mammalian Expi293 cells, purified with FLAG M2 agarose, and isolated by gel filtration chromatography. When biotinylation was required, methods of nonpatent documents (BMC biotechnology, 2008,8,41; and Protein Science, 1999,8,921-929) were used.
(§2) Using Kinase assay buffer III (manufactured by SignalChem) supplemented with 2 mM DTT, 100 μM sodium vanadate, and 2 mM manganese chloride, kinase (IKKβ (manufactured by SignalChem) or TBK1 (manufactured by SignalChem)) and Regnase-1 were reacted in the presence of 10 μM ATP at room temperature for 2 hours to perform a phosphorylation reaction.
(§3) Phosphorylated Regnase-1 was detected by the AlphaScreen system. After each of the above-mentioned phosphorylated Regnase-1 antibodies was added and reacted at room temperature for one hour, anti-FLAG AlphaLISA Acceptor Beads (manufactured by PerkinElmer) and Protein A AlphaScreen Donor Beads (manufactured by PerkinElmer) were added, and EnVision (manufactured by PerkinElmer) was used to measure the excited luminescence. As a result, phosphorylated Regnase-1 produced by the phosphorylation reaction by kinase was specifically detected, and signals were confirmed to be enhanced in a manner dependent on Regnase-1 and kinase concentrations (FIG. 24).
(§4) After mixing 2 nM of the above-mentioned Regnase-1 and the compound, phosphorylated Regnase-1 produced by the phosphorylation reaction was detected by the AlphaScreen system. As the results, the inhibition rate was calculated from the signals obtained when adding the compound at each concentration, by defining the signal obtained with Regnase-1 alone to be 100% inhibition rate, and the signal obtained when the same amount of solvent (DMSO) is added in place of the compound as 0% inhibition rate. The 50% inhibition concentration (μM) was calculated from the obtained dose response curve (Table 11).

[2] = biological target: T2, ΔCTD_Reg1 (amino acids 1 to 546 of human Regnase-1) phosphorylation by IKKβ (Homo sapiens, UniProt Q5D1E8); experiment: Regnase-1 phosphorylation inhibition by compounds (AlphaScreen), IKKβ, CTD-deficient Regnase-1
T2 construct: made in house; host or cells: Expi293 cells
T2 sequence (Q5D1E8 1-546): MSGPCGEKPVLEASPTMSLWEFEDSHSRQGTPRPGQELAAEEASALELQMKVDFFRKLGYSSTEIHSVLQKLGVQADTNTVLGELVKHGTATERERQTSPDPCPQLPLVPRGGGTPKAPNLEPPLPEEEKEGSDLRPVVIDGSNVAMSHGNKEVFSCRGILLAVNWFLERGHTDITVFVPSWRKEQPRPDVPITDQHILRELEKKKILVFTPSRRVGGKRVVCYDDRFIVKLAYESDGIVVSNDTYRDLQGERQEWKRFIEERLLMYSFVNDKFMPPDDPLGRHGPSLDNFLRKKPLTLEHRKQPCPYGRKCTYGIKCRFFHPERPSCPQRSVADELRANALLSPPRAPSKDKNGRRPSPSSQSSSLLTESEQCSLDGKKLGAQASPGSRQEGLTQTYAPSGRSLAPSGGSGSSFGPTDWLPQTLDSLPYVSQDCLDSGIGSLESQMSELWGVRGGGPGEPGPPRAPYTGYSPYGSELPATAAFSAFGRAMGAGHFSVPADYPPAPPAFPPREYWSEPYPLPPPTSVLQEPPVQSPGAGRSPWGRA
Protocol: as §1, §2, §3, §4

[3] = biological target: T3, Reg1_301-599 (amino acids 301-599 of human Regnase-1) phosphorylation by IKKβ (Homo sapiens, UniProt Q5D1E8); experiment: Regnase-1 phosphorylation inhibition by compounds (AlphaScreen), IKKβ, C-terminal Regnase-1; conditions: Table 14, read-out: Phosphorylation inhibition Reg1_301-599, 50% inhibition concentration (IKKβ)
T3 construct: made in house; host or cells: Expi293 cells
T3 sequence (Q5D1E8 301-599): T1 sequence (Q5D1E8 301-599)
Description: (§5) The full-length sequence of human Regnase-1 (UniProt ID: Q5D1E8) was used to prepare a construct having a FLAG tag on the N-terminal side and a recognition sequence for biotin ligase BirA on the C-terminal side (FL_Reg1) as a target protein. The above-mentioned Regnase-1 was expressed in mammalian Expi293 cells, purified with FLAG M2 agarose, and isolated by gel filtration chromatography. When biotinylation was required, methods from nonpatent documents (BMC biotechnology, 2008,8,41; and Protein Science, 1999,8,921-929) were used.
as §1, §2, §3, §4

[4] = biological target: T4, ΔCTD_Reg1 (amino acids 1 to 546 of human Regnase-1) phosphorylation by TBK1 (Homo sapiens, UniProt Q5D1E8); experiment: Regnase-1 phosphorylation inhibition by compounds (AlphaScreen), TBK1, CTD-deficient Regnase-1
T4 construct: made in house; host or cells: Expi293 cells
T4 sequence (Q5D1E8 1-546): T2 sequence (Q5D1E8 1-546)
Description: as §5, §1, §2, §3, §4

[5] = Table 14, phosphorylation by IKKβ, read-out: Phosphorylation inhibition ΔCTD_Reg1, 50% inhibition concentration (IKKβ)
[6] = Table 13, phosphorylation by TBK1, read-out: Phosphorylation inhibition ΔCTD_Reg1, 50% inhibition concentration (TBK1)
[7] = Table 11, 2 nM Regnase-1, AlphaScreen, read-out: 50% inhibition concentration, Regnase-1 phosphorylation, ΔCTD_Reg1, TBK1
[8] = Table 11, 2 nM Regnase-1, AlphaScreen, read-out: 50% inhibition concentration, Regnase-1 phosphorylation, ΔCTD_Reg1, IKKβ

IC50 [1]	IC50 [2, 5]	IC50 [3]	IC50 [4, 6]	IC50 [4, 7]	IC50 [2, 8]	SMILES
19.6 µM	27 µM	20.7 µM	–	–	–	CC[C@H](C)[C@@H]1NC(=O)[C@H](Cc2c[nH]c3ccccc23)NC(=O)[C@H](CCC(N)=O)NC(=O)[C@H](Cc2ccc(O)cc2)NC(=O)[C@H](C(C)C)NC(=O)[C@H](C)NC(=O)[C@H](Cc2ccc(O)cc2)NC(=O)[C@H](CCCNC(=N)N)NC(=O)[C@H](C)N(C)C(=O)C[C@@H](C(=O)N2CCCC2)NC(=O)[C@@H]2CCCN2C(=O)[C@H](Cc2ccc(O)cc2)NC1=O [PP12] (HELM PEPTIDE1{[meA].R.Y.A.V.Y.Q.W.I.Y.P.D.[C1CCN([*:1])C1]}$PEPTIDE1,PEPTIDE1,1:R1-12:R3$$$V2.0)
–	0.2 µM	0.5 µM	1.8 µM	–	–	CC[C@H](C)[C@@H]1NC(=O)[C@H](CC(=O)O)NC(=O)[C@H](C)N(C)C(=O)C[C@@H](C(=O)N2CCCC2)NC(=O)[C@H](Cc2ccc(O)cc2)NC(=O)[C@H](CC(=O)O)NC(=O)[C@H](Cc2c[nH]c3ccccc23)NC(=O)[C@H](Cc2ccc(O)cc2)NC(=O)[C@H](CC(=O)O)NC(=O)[C@H](Cc2ccccc2)NC(=O)[C@H](Cc2c[nH]c3ccccc23)NC1=O [PP18] (HELM PEPTIDE1{[meA].D.I.W.F.D.Y.W.D.Y.D.[C1CCN([*:1])C1]}$PEPTIDE1,PEPTIDE1,1:R1-11:R3$$$V2.0)
> 62.1 µM	> 62.1 µM	> 62.1 µM	> 62.1 µM	–	–	CC[C@H](C)[C@@H]1NC(=O)[C@H](Cc2c[nH]c3ccccc23)NC(=O)[C@@H](Cc2ccccc2)NC(=O)[C@H](CCCCN)NC(=O)[C@H](C)N(C)C(=O)C[C@@H](C(=O)N2CCCC2)NC(=O)[C@H](CCC(=O)O)NC(=O)[C@H](Cc2ccccc2)NC(=O)[C@H](CO)NC(=O)[C@H](Cc2c[nH]cn2)NC(=O)[C@H](Cc2c[nH]cn2)NC1=O [PP20] (HELM PEPTIDE1{[meA].K.[dF].W.I.H.H.S.F.E.D.[C1CCN([*:1])C1]}$PEPTIDE1,PEPTIDE1,1:R1-11:R3$$$V2.0)
> 62.1 µM	> 62.1 µM	> 62.1 µM	–	–	–	CC[C@H](C)[C@@H]1NC(=O)[C@H](Cc2c[nH]c3ccccc23)NC(=O)[C@H](CCCNC(=N)N)NC(=O)[C@H](Cc2ccccc2)NC(=O)[C@H](CCC(N)=O)NC(=O)[C@H](C)NC(=O)[C@H](Cc2ccccc2)NC(=O)[C@H](CCCCN)NC(=O)[C@H](C)N(C)C(=O)C[C@@H](C(=O)N2CCCC2)NC(=O)[C@@H]2CCCN2C(=O)[C@H](Cc2ccc(O)cc2)NC1=O [PP11] (HELM PEPTIDE1{[meA].K.F.A.Q.F.R.W.I.Y.P.D.[C1CCN([*:1])C1]}$PEPTIDE1,PEPTIDE1,1:R1-12:R3$$$V2.0)
0.4 µM	–	1.8 µM	0.2 µM	–	–	CC[C@H](C)[C@@H]1NC(=O)[C@H](CO)NC(=O)[C@H](CCCNC(=N)N)NC(=O)[C@H](Cc2ccc(O)cc2)NC(=O)[C@H](Cc2ccc(O)cc2)NC(=O)[C@H](Cc2c[nH]c3ccccc23)NC(=O)[C@H](CO)NC(=O)[C@H](CCC(N)=O)NC(=O)[C@H](Cc2ccc(O)cc2)NC(=O)[C@H](CC(N)=O)NC(=O)[C@H](C)N(C)C(=O)C[C@@H](C(=O)N2CCCC2)NC(=O)[C@H](Cc2c[nH]c3ccccc23)NC1=O [PP10] (HELM PEPTIDE1{[meA].N.Y.Q.S.W.Y.Y.R.S.I.W.D.[C1CCN([*:1])C1]}$PEPTIDE1,PEPTIDE1,1:R1-13:R3$$$V2.0)

Further lines, the compound ahead of its results:

SMILES	IC50 [1]	IC50 [2, 5]	IC50 [3]	IC50 [4, 6]	IC50 [4, 7]	IC50 [2, 8]
CC(C)[C@@H]1NC(=O)[C@H](CCCCN)NC(=O)[C@H](Cc2ccc(O)cc2)NC(=O)[C@H](Cc2c[nH]c3ccccc23)NC(=O)[C@H](CO)NC(=O)[C@H]([C@@H](C)O)NC(=O)[C@H](C)N(C)C(=O)C[C@@H](C(=O)N2CCCC2)NC(=O)[C@H](CCC(N)=O)NC(=O)CNC(=O)[C@H](Cc2c[nH]c3ccccc23)NC(=O)[C@H](CC(N)=O)NC1=O [PP1] (HELM PEPTIDE1{[meA].T.S.W.Y.K.V.N.W.G.Q.D.[C1CCN([*:1])C1]}$PEPTIDE1,PEPTIDE1,1:R1-12:R3$$$V2.0)	> 62.1 µM	> 62.1 µM	> 62.1 µM	> 62.1 µM	> 62.1 µM	> 62.1 µM
CC[C@H](C)[C@@H]1NC(=O)[C@H](CCCNC(=N)N)NC(=O)[C@H](Cc2ccc(O)cc2)NC(=O)[C@H](Cc2c[nH]c3ccccc23)NC(=O)[C@H](C)NC(=O)[C@H](CO)NC(=O)[C@H](C)NC(=O)[C@H](Cc2c[nH]cn2)NC(=O)[C@H](CCCCN)NC(=O)[C@@H](C)N(C)C(=O)C[C@@H](C(=O)N2CCCC2)NC(=O)[C@H](Cc2c[nH]c3ccccc23)NC1=O [PP3] (HELM PEPTIDE1{[C[C@H](C(=O)[*:2])N(C)[*:1]].K.H.A.S.A.W.Y.R.I.W.D.[C1CCN([*:1])C1]}$PEPTIDE1,PEPTIDE1,1:R1-12:R3$$$V2.0)	7.1 µM	–	6.8 µM	–	5.7 µM	8.3 µM
CC[C@H](C)[C@@H]1NC(=O)[C@H](CCCCN)NC(=O)[C@H](Cc2ccc(O)cc2)NC(=O)[C@H](Cc2c[nH]c3ccccc23)NC(=O)[C@H](CO)NC(=O)[C@H](CO)NC(=O)[C@H]([C@@H](C)O)NC(=O)[C@@H]2CCCN2C(=O)[C@@H](C)N(C)C(=O)C[C@@H](C(=O)N2CCCC2)NC(=O)[C@H](Cc2c[nH]c3ccccc23)NC1=O [PP23] (HELM PEPTIDE1{[C[C@H](C(=O)[*:2])N(C)[*:1]].P.T.S.S.W.Y.K.I.W.D.[C1CCN([*:1])C1]}$PEPTIDE1,PEPTIDE1,1:R1-11:R3$$$V2.0)	–	> 62.1 µM	> 62.1 µM	–	–	–
